According to US11459315B2, “Modulators of methyl modifying enzymes, compositions and uses thereof” (Constellation Pharmaceuticals, Inc., priority 2017, dated 2022):
Where two headings read alike, the source gives them in different places.

Tests used:
[1] = test system: H3K27me3 mark in HeLa cells (EZH2); test: H3K27me3 Alpha Hela Assay (AlphaLISA); assay type: cell-based; conditions: HeLa cell assay, Table 3 classes, read-out: EC50 Cellular Activity
Summary of the method: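 HeLa cells (1,000/well) treated with ten 3-fold compound doses for 72 h at 37 °C; lysates extracted and H3K27me3 detected by AlphaLISA with anti-K27me3 acceptor beads, biotinylated anti-H3 (3 nM) and streptavidin donor beads. EC50 from DMSO-normalized dose-response curves; duplicate plate assessed viability.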

[2] = molecular target: PRC2 containing wt EZH2 (Homo sapiens (Human), UniProt Q15910); test: EZH2 residence time assay (100-fold dilution of pre-formed enzyme-inhibitor complex); assay type: biochemical
Method: EZH2 residence time assay: Compound residence times were assessed by monitoring the recovery of enzyme activity following a 100-fold dilution of pre-formed enzyme-inhibitor complex (dilution reaction), and comparing it to the activity of an undiluted control with the same final concentrations of all reagents (control reaction). Enzyme activity was measured by incorporation of ^3H-SAM into a biotinylated H3 peptide. […] For the control reaction, 0.202 nM PRC2 was pre-incubated with 1 μM activating peptide, 1.01 μM SAM, 1.01 μM ^3H-SAM, and compound at 6.06 times its Ki for 2 h in 138.6 μL of buffer, then the reaction was initiated by the addition of 1.4 μL 500 μM substrate peptide in water. Reactions were quenched at various time points spanning up to 10 hours, by transferring 8 μL aliquots from the reaction vessel to a plate containing 8 μL per well of STOP solution (50 mM Tris pH 8.5, 200 mM EDTA, 2 mM SAH). After the last time point, 12 μL of the quenched solutions were transferred to a streptavidin coated FlashPlate (PerkinElmer) containing 40 μL per well of STOP solution, incubated 1-8 h, washed, and read in a TopCount plate reader (PerkinElmer). A custom script was used to fit control reaction progress data to a straight line and dilution reaction progress data:
Where y is the product formed, t is the reaction time, vi is the initial velocity, vs is the steady state velocity, and kobs is the rate constant for the transition from the initial velocity phase of the curve to the steady state velocity phase of the curve. In fitting the dilution reaction progress data, vs was constrained to the slope of the line fitted to the control reaction progress data. The fitted value of kobs was then transformed into residence time:
Where τ is residence time, Ki is the inhibition constant, [EI] is the calculated equilibrium concentration of enzyme-inhibitor complex, [E] is the calculated equilibrium concentration of free enzyme, and [I] is the calculated equilibrium concentration of free inhibitor.

PRC2 containing wt EZH2, sequence (Q15910 whole entry): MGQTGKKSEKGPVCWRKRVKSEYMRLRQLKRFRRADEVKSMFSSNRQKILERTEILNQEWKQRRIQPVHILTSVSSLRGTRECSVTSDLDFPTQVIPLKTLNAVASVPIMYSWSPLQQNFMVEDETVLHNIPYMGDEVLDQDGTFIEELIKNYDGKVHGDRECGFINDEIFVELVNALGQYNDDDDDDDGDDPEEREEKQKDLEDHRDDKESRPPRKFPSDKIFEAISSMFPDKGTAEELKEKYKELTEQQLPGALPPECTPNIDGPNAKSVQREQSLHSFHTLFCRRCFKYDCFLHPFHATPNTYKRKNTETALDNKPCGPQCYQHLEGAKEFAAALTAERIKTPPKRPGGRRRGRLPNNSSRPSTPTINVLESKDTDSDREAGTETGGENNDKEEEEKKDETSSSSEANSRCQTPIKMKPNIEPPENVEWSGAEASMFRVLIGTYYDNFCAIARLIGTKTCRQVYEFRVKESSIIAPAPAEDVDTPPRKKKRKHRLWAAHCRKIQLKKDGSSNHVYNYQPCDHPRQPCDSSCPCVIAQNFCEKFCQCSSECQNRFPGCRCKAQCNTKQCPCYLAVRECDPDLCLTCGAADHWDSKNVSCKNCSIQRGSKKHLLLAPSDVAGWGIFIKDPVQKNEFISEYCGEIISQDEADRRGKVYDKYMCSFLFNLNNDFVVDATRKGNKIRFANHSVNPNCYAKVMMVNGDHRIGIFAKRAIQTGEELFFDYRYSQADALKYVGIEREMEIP
PRC2 containing wt EZH2, sequence (O75530 whole entry partner): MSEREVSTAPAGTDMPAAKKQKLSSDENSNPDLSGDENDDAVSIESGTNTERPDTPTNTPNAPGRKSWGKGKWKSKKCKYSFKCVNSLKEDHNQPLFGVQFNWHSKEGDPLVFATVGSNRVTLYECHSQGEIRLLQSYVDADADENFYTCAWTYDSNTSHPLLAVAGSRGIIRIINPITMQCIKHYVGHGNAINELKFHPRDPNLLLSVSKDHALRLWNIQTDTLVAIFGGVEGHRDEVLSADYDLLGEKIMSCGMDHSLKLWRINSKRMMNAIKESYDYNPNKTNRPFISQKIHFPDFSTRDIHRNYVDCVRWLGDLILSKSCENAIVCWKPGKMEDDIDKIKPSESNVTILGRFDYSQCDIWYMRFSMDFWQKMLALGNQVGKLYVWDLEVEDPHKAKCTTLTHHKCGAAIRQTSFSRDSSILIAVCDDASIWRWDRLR
PRC2 containing wt EZH2, sequence (Q15022 whole entry partner): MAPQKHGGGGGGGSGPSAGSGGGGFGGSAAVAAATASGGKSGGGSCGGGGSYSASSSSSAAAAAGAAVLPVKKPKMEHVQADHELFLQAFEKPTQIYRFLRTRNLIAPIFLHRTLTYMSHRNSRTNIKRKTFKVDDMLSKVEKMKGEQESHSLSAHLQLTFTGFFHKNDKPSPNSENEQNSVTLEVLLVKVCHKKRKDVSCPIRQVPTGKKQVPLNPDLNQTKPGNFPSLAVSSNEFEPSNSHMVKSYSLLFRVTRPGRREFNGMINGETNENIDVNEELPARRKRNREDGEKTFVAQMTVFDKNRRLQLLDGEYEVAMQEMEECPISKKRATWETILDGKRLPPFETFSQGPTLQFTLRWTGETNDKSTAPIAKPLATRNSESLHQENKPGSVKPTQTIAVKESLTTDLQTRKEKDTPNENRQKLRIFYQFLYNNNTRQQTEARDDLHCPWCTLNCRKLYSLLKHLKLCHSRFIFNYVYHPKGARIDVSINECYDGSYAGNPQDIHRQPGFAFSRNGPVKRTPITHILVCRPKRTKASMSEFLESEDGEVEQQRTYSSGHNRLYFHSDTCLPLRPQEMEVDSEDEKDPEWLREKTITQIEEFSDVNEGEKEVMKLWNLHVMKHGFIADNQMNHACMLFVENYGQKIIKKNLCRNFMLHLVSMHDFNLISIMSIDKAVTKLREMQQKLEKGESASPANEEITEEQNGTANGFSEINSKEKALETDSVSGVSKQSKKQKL
PRC2 containing wt EZH2, sequence (Q09028 whole entry partner): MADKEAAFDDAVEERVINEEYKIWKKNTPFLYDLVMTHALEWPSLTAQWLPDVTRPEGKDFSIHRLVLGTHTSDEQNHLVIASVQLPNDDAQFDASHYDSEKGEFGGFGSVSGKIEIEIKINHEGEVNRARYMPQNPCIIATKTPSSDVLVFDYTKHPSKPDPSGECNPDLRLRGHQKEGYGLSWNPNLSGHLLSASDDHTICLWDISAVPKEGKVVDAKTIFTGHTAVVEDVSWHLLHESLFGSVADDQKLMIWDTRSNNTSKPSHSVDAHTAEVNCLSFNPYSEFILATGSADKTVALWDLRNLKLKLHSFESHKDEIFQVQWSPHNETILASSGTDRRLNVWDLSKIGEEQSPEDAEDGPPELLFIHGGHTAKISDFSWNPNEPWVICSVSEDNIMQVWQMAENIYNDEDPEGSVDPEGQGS
PRC2 containing wt EZH2, sequence (Q6ZN18 whole entry partner): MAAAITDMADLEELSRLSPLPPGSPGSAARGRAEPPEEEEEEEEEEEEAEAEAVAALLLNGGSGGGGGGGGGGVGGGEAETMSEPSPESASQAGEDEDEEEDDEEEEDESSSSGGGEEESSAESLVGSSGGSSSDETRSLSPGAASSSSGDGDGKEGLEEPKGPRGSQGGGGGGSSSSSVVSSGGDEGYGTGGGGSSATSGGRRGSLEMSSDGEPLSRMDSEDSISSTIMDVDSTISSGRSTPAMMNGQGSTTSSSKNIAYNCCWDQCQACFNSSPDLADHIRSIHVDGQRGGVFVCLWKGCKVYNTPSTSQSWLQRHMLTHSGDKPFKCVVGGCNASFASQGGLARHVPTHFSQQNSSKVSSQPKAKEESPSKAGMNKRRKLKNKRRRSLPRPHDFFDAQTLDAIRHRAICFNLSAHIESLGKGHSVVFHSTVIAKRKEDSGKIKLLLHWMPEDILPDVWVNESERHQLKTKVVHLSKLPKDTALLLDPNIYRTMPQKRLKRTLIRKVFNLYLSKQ

Row | SMILES | EC50 [1] [nM] | residence time [2] | EC50 ([1]; Homo sapiens, HeLa) [nM] | residence time ([2]; read-out: Residence Time) [min]
1 | Cc1cc(C)c(CNC(=O)c2c(C)n([C@H](C)C3CCC(NC4COC4)CC3)c3ccccc23)c(=O)[nH]1 (single isomer, unassigned) [drawing 210] | 25 to 125 | C (a t value of greater than 0.5 hours but less or equal than 5 hours) | – | –
2 | CSc1cc(C)[nH]c(=O)c1CNC(=O)c1c(C)n([C@H](C)C2CCN(CC(F)(F)F)CC2)c2ccccc12 [drawing 243] | – | 300 to 2100 min | < 5 | –
3 | COc1cc(C)[nH]c(=O)c1CNC(=O)c1c(C)n([C@H](C)C2CCC(NC3COC3)CC2)c2ccccc12 (single isomer, unassigned) [drawing 208] | 25 to 125 | C (a t value of greater than 0.5 hours but less or equal than 5 hours) | – | –
4 | Cc1cc(Cl)c(CNC(=O)c2c(C)n([C@H](C)C3OCC(N(C)C)CO3)c3ccccc23)c(=O)[nH]1 (single isomer, unassigned) [drawing 229] | > 125 | – | – | < 30
5 | Cc1cc(SC2CCC2)c(CNC(=O)c2c(C)n([C@H](C)C3CCN(CC(F)(F)F)CC3)c3ccccc23)c(=O)[nH]1 [drawing 267] | – | 30 to 300 min | 25 to 125 | –
6 | CSc1cc(C)[nH]c(=O)c1CNC(=O)c1c(C)n([C@H](C)C2CCC(O)CC2)c2ccccc12 (single isomer, unassigned) [drawing 250] | – | B (a t value of greater than 5 hours but less or equal than 35 hours) | < 5 | –
7 | COC1CN(C2CCC([C@@H](C)n3c(C)c(C(=O)NCc4c(SC)cc(C)[nH]c4=O)c4ccccc43)CC2)C1 (single isomer, unassigned) [drawing 220] | 5 to 25 | C (a t value of greater than 0.5 hours but less or equal than 5 hours) | – | –
8 | Cc1cc(Cl)c(CNC(=O)c2c(C)n([C@H](C)C3CCOCC3)c3ccccc23)c(=O)[nH]1 | – | < 30 min | 25 to 125 | –
9 | CSc1cc(C)[nH]c(=O)c1CNC(=O)c1c(C)n([C@H](C)C2CCC(NC3(C)CCOC3)CC2)c2ccccc12 (single isomer, unassigned) [drawing 269] | 5 to 25 | > 2100 min | – | –
10 | Cc1cc(Cl)c(CNC(=O)c2c(C)n([C@H](C)C3CCC(NC4(C)COC4)CC3)c3ccccc23)c(=O)[nH]1 (single isomer, unassigned) [drawing 202] | 5 to 25 | B (a t value of greater than 5 hours but less or equal than 35 hours) | – | –
11 | COc1cc(C)[nH]c(=O)c1CNC(=O)c1c(C)n([C@H](C)C23CC(N(C)CC(F)(F)F)(C2)C3)c2ccccc12 | – | – | 25 to 125 | 30 to 300
12 | Cc1cc(C)c(CNC(=O)c2c(C)n([C@H](C)C34CC(NC5COC5)(C3)C4)c3ccccc23)c(=O)[nH]1 | – | – | 25 to 125 | < 30
13 | CSc1cc(C)[nH]c(=O)c1CNC(=O)c1c(C)n([C@H](C)C2OCC(NC3(C)COC3)CO2)c2ccccc12 (single isomer, unassigned) [drawing 228] | > 125 | D (a t value of less or equal than 0.5 hours) | – | –
14 | Cc1cc(C)c(CNC(=O)c2c(C)n([C@H](C)C34CC(N(C)CC(F)(F)F)(C3)C4)c3ccccc23)c(=O)[nH]1 | – | – | > 125 | < 30
15 | CCOC1CN(C2CCC([C@@H](C)n3c(C)c(C(=O)NCc4c(SC)cc(C)[nH]c4=O)c4cccnc43)CC2)C1 (single isomer, unassigned) [drawing 261] | < 5 | – | – | 300 to 2100
16 | Cc1cc(Cl)c(CNC(=O)c2c(C)n([C@H](C)C3CCC(NC4COC4)CC3)c3ccccc23)c(=O)[nH]1 (single isomer, unassigned) [drawing 212] | 25 to 125 | C (a t value of greater than 0.5 hours but less or equal than 5 hours) | – | –
17 | CSc1cc(C)[nH]c(=O)c1CNC(=O)c1c(C)n([C@H](C)C2CCN(C3CC3)CC2)c2ncccc12 [drawing 256] | – | 300 to 2100 min | < 5 | –
18 | CSc1cc(C)[nH]c(=O)c1CNC(=O)c1c(C)n([C@H](C)C2CCC(N3CC(F)C3)CC2)c2ccccc12 (single isomer, unassigned) [drawing 254] | – | A (value of greater than 35 hours) | < 5 | –

Row | SMILES | EC50 [1] [nM] | residence time [2] | EC50 ([1]; Homo sapiens, HeLa) [nM] | residence time ([2]; read-out: Residence Time) [min]
19 | COC1CN(C2CCC([C@@H](C)n3c(C)c(C(=O)NCc4c(SC)cc(C)[nH]c4=O)c4ccccc43)CC2)C1 (single isomer, unassigned) [drawing 219] | – | A (value of greater than 35 hours) | < 5 | –
20 | Cc1cc(C)c(CNC(=O)c2c(C)n([C@H](C)C3CCN(CC(F)(F)F)CC3)c3ccccc23)c(=O)[nH]1 | – | < 30 min | 25 to 125 | –
21 | Cc1cc(Cl)c(CNC(=O)c2c(C)n([C@H](C)C3CCC(NC4(C)COC4)CC3)c3ccccc23)c(=O)[nH]1 (single isomer, unassigned) [drawing 201] | 25 to 125 | D (a t value of less or equal than 0.5 hours) | – | –
22 | CSc1cc(C)[nH]c(=O)c1CNC(=O)c1c(C)n([C@H](C)C2OCC(NC(C)(C)C)CO2)c2ccccc12 (single isomer, unassigned) [drawing 223] | 25 to 125 | D (a t value of less or equal than 0.5 hours) | – | –
23 | CSc1cc(C)[nH]c(=O)c1CNC(=O)c1c(C)n([C@H](C)C2CCOCC2)c2ccccc12 [drawing 247] | – | 30 to 300 min | < 5 | –
24 | CSc1cc(C)[nH]c(=O)c1CNC(=O)c1c(C)n([C@H](C)C2CCC(N3CC(OC(F)F)C3)CC2)c2ccccc12 (single isomer, unassigned) [drawing 252] | – | > 2100 min | < 5 | –
25 | CSc1cc(C)[nH]c(=O)c1CNC(=O)c1c(C)n([C@H](C)C2CCN(CC(C)(C)O)CC2)c2ccccc12 [drawing 240] | – | 300 to 2100 min | 25 to 125 | –
26 | CSc1cc(C)[nH]c(=O)c1CNC(=O)c1c(C)n([C@H](C)C2CCC(NC3COC3)CC2)c2ccccc12 (single isomer, unassigned) [drawing 214] | 25 to 125 | C (a t value of greater than 0.5 hours but less or equal than 5 hours) | – | –
27 | COC1CCC([C@@H](C)n2c(C)c(C(=O)NCc3c(SC)cc(C)[nH]c3=O)c3ccccc32)CC1 (single isomer, unassigned) [drawing 248] | < 5 | > 2100 min | – | –
28 | CSc1cc(C)[nH]c(=O)c1CNC(=O)c1c(C)n([C@H](C)C2CCC(NC3(C)COC3)CC2)c2ccccc12 (single isomer, unassigned) [drawing 206] | 5 to 25 | B (a t value of greater than 5 hours but less or equal than 35 hours) | – | –
29 | Cc1cc(Cl)c(CNC(=O)c2c(C)n([C@H](C)C3OCC(NC4(C)COC4)CO3)c3ccccc23)c(=O)[nH]1 (single isomer, unassigned) [drawing 226] | 5 to 25 | B (a t value of greater than 5 hours but less or equal than 35 hours) | – | –
30 | CSc1cc(C)[nH]c(=O)c1CNC(=O)c1c(C)n([C@H](C)C2CCC(N3CC(OC(F)F)C3)CC2)c2ncccc12 (single isomer, unassigned) | – | – | < 5 | 300 to 2100
31 | CSc1cc(C)[nH]c(=O)c1CNC(=O)c1c(C)n([C@H](C)C2CCC(NC3COC3)CC2)c2ccccc12 (single isomer, unassigned) [drawing 213] | < 5 | A (value of greater than 35 hours) | – | –
32 | Cc1cc(Cl)c(CNC(=O)c2c(C)n([C@H](C)C3OCC(N(C)C)CO3)c3ccccc23)c(=O)[nH]1 (single isomer, unassigned) [drawing 230] | 25 to 125 | D (a t value of less or equal than 0.5 hours) | – | –
33 | CSc1cc(C)[nH]c(=O)c1CNC(=O)c1c(C)n([C@H](C)C2CCC(N3CC(F)C3)CC2)c2ccccc12 (single isomer, unassigned) [drawing 255] | 5 to 25 | C (a t value of greater than 0.5 hours but less or equal than 5 hours) | – | –
34 | CSc1cc(C)[nH]c(=O)c1CNC(=O)c1c(C)n([C@H](C)C2OCC(N(C)C)CO2)c2ccccc12 (single isomer, unassigned) [drawing 231] | > 125 | D (a t value of less or equal than 0.5 hours) | – | –
35 | COc1cc(C)[nH]c(=O)c1CNC(=O)c1c(C)n([C@H](C)C2CCC(N3CC(OC)C3)CC2)c2ccccc12 (single isomer, unassigned) [drawing 218] | > 125 | C (a t value of greater than 0.5 hours but less or equal than 5 hours) | – | –
